Test system: Meloidogyne incognita
Assay: Meloidogyne incognita test (MELGIN): sand, salad seeds, gall formation after 14 days
Type: in vivo
Settings: application rate 20 ppm, salad seedlings in sand
Procedure: Solvent: 125.0 parts by weight of acetone To produce a suitable preparation of active compound, 1 part by weight of active compound is mixed with the stated amount of solvent, and the concentrate is diluted with water to the desired concentration. Vessels are filled with sand, a solution of the active ingredient, a suspension containing eggs and larvae of the southern root-knot nematode (Meloidogyne incognita) and salad seeds. The salad seeds germinate and the seedlings grow. Galls develop in the roots. After 14 days the nematicidal activity is determined on the basis of the percentage of gall formation. 100% means that no galls were found; 0% means that the number of galls found on the roots of the treated plants was equal to that in untreated control plants.

## O=C(NS(=O)(=O)c1ccccc1OC(F)(F)F)c1cn2cc(C(F)(F)C(F)(F)F)sc2n1 [Example I-1-234]
  nematicidal activity on the basis of the percentage of gall formation (100% = no galls): 100%

## Cc1cc(S(=O)(=O)NC(=O)c2cn3cc(Cl)sc3n2)c(C)cc1C#N [Example I-1-45]
  nematicidal activity on the basis of the percentage of gall formation (100% = no galls): 100%

## Cc1cc(S(=O)(=O)NC(=O)c2cn3cc(C(F)(F)F)sc3n2)c(C)cc1Br [Example I-1-14]
  nematicidal activity on the basis of the percentage of gall formation (100% = no galls): 100%

## CCc1ccc(CC)c(S(=O)(=O)NC(=O)c2cn3cc(C(F)(F)F)sc3n2)c1 [Example I-1-305]
  nematicidal activity on the basis of the percentage of gall formation (100% = no galls): 100%

## CSc1cn2cc(C(=O)NS(=O)(=O)c3ccccc3Cl)nc2s1 [Example I-1-298]
  nematicidal activity on the basis of the percentage of gall formation (100% = no galls): 100%

## CSc1ccc(Cl)c(S(=O)(=O)NC(=O)c2cn3cc(C(F)(F)F)sc3n2)c1 [Example I-1-308]
  nematicidal activity on the basis of the percentage of gall formation (100% = no galls): 100%

## O=C(NS(=O)(=O)c1ccc(Cl)cc1)c1cn2cc(C(F)(F)C(F)(F)F)sc2n1 [Example I-1-144]
  nematicidal activity on the basis of the percentage of gall formation (100% = no galls): 90%

## Cc1ccc(OC(F)F)cc1S(=O)(=O)NC(=O)c1cn2cc(C(F)(F)F)sc2n1 [Example I-1-7]
  nematicidal activity on the basis of the percentage of gall formation (100% = no galls): 90%

## Cc1c(C(F)(F)F)sc2nc(C(=O)NS(=O)(=O)c3cccc(Cl)c3)cn12 [Example I-1-155]
  nematicidal activity on the basis of the percentage of gall formation (100% = no galls): 100%

## O=C(NS(=O)(=O)c1cc(Cl)ccc1Cl)c1cn2cc(C(F)(F)C(F)(F)F)sc2n1 [Example I-1-145]
  nematicidal activity on the basis of the percentage of gall formation (100% = no galls): 100%

## O=C(NS(=O)(=O)c1c(F)cccc1F)c1cn2cc(C(F)(F)F)sc2n1 [Example I-1-11]
  nematicidal activity on the basis of the percentage of gall formation (100% = no galls): 100%

## CCc1ccc(Cl)cc1S(=O)(=O)NC(=O)c1cn2cc(C(F)(F)F)sc2n1 [Example I-1-309]
  nematicidal activity on the basis of the percentage of gall formation (100% = no galls): 100%

## Cc1ccc(C)c(S(=O)(=O)NC(=O)c2cn3c(C(F)(F)F)csc3n2)c1 [Example I-1-270]
  nematicidal activity on the basis of the percentage of gall formation (100% = no galls): 100%

## O=C(NS(=O)(=O)c1ccccc1F)c1cn2cc(C(F)(F)F)sc2n1 [Example I-1-212]
  nematicidal activity on the basis of the percentage of gall formation (100% = no galls): 100%

## CC(C)(C)c1cn2cc(C(=O)NS(=O)(=O)c3cc(Cl)ccc3Cl)nc2s1 [Example I-1-15]
  nematicidal activity on the basis of the percentage of gall formation (100% = no galls): 100%

## COc1ccc(Cl)c(S(=O)(=O)NC(=O)c2cn3cc(Br)sc3n2)c1 [Example I-1-60]
  nematicidal activity on the basis of the percentage of gall formation (100% = no galls): 100%

## CC(=O)c1ccc(Cl)c(S(=O)(=O)NC(=O)c2cn3cc(C(F)(F)F)sc3n2)c1 [Example I-1-301]
  nematicidal activity on the basis of the percentage of gall formation (100% = no galls): 100%

## Cc1c(C(F)(F)C(F)(F)F)sc2nc(C(=O)NS(=O)(=O)c3cccc(Cl)c3)cn12 [Example I-1-250]
  nematicidal activity on the basis of the percentage of gall formation (100% = no galls): 90%

## COc1ccccc1S(=O)(=O)NC(=O)c1cn2cc(C(F)(F)C(F)(F)F)sc2n1 [Example I-1-248]
  nematicidal activity on the basis of the percentage of gall formation (100% = no galls): 100%

## COc1ccc(Cl)c(S(=O)(=O)NC(=O)c2nc3sc(C(F)(F)F)cn3c2Br)c1 [Example I-3-2]
  nematicidal activity on the basis of the percentage of gall formation (100% = no galls): 100%

## Cc1c(C(F)(F)F)sc2nc(C(=O)NS(=O)(=O)c3ccc(Cl)cc3)cn12 [Example I-1-156]
  nematicidal activity on the basis of the percentage of gall formation (100% = no galls): 90%

## N#Cc1ccc(Cl)c(S(=O)(=O)NC(=O)c2cn3cc(C(F)(F)F)sc3n2)c1 [Example I-1-310]
  nematicidal activity on the basis of the percentage of gall formation (100% = no galls): 90%

## O=C(NS(=O)(=O)c1cc(Cl)ccc1Cl)c1cn2c(C(F)(F)F)csc2n1 [Example I-1-31]
  nematicidal activity on the basis of the percentage of gall formation (100% = no galls): 100%

## CSc1cn2cc(C(=O)NS(=O)(=O)c3c(Cl)cccc3Cl)nc2s1 [Example I-1-300]
  nematicidal activity on the basis of the percentage of gall formation (100% = no galls): 100%

## CSc1cn2cc(C(=O)NS(=O)(=O)c3cc(Cl)ccc3Cl)nc2s1 [Example I-1-297]
  nematicidal activity on the basis of the percentage of gall formation (100% = no galls): 90%

## O=C(NS(=O)(=O)c1cccc(Cl)c1)c1cn2cc(C(F)(F)C(F)(F)F)sc2n1 [Example I-1-143]
  nematicidal activity on the basis of the percentage of gall formation (100% = no galls): 90%

## COc1ccc(Cl)c(S(=O)(=O)NC(=O)c2nc3sc(C(F)(F)F)cn3c2I)c1 [Example I-3-6]
  nematicidal activity on the basis of the percentage of gall formation (100% = no galls): 100%

## CC(C)(C)c1cn2cc(C(=O)NS(=O)(=O)c3ccccc3Cl)nc2s1 [Example I-1-16]
  nematicidal activity on the basis of the percentage of gall formation (100% = no galls): 100%

## Cc1ccc(Cl)cc1S(=O)(=O)NC(=O)c1cn2c(C)c(C(F)(F)F)sc2n1 [Example I-1-290]
  nematicidal activity on the basis of the percentage of gall formation (100% = no galls): 100%

## O=C(NS(=O)(=O)c1ccccc1-c1ccccc1)c1cn2cc(C(F)(F)C(F)(F)F)sc2n1 [Example I-1-235]
  nematicidal activity on the basis of the percentage of gall formation (100% = no galls): 100%

## COc1ccc(Cl)c(S(=O)(=O)NC(=O)c2cn3cc(SC)sc3n2)c1 [Example I-1-299]
  nematicidal activity on the basis of the percentage of gall formation (100% = no galls): 90%

## Cc1c(Cl)ccc(S(=O)(=O)NC(=O)c2cn3cc(C(F)(F)F)sc3n2)c1C [Example I-1-307]
  nematicidal activity on the basis of the percentage of gall formation (100% = no galls): 100%

## Cc1ccc(OC(F)F)c(S(=O)(=O)NC(=O)c2cn3cc(C(F)(F)F)sc3n2)c1 [Example I-1-314]
  nematicidal activity on the basis of the percentage of gall formation (100% = no galls): 90%

## COc1ccc(Cl)c(S(=O)(=O)NC(=O)c2cn3c(C(F)(F)F)csc3n2)c1 [Example I-1-29]
  nematicidal activity on the basis of the percentage of gall formation (100% = no galls): 90%

## O=C(NS(=O)(=O)c1c(F)cccc1F)c1cn2cc(Cl)sc2n1 [Example I-1-20]
  nematicidal activity on the basis of the percentage of gall formation (100% = no galls): 100%

## COc1ccc(Cl)c(S(=O)(=O)NC(=O)c2cn3cc(Cl)sc3n2)c1 [Example I-1-19]
  nematicidal activity on the basis of the percentage of gall formation (100% = no galls): 100%

## CC(C)(C)c1cn2cc(C(=O)NS(=O)(=O)c3c(Cl)cccc3Cl)nc2s1 [Example I-1-13]
  nematicidal activity on the basis of the percentage of gall formation (100% = no galls): 100%

## O=C(NS(=O)(=O)c1ccccc1Cl)c1cn2cc(Cl)sc2n1 [Example I-1-17]
  nematicidal activity on the basis of the percentage of gall formation (100% = no galls): 100%

## O=C(NS(=O)(=O)c1cc(Br)ccc1Br)c1cn2cc(C(F)(F)F)sc2n1 [Example I-1-312]
  nematicidal activity on the basis of the percentage of gall formation (100% = no galls): 100%

## O=C(NS(=O)(=O)c1ccc(Br)c(Cn2cccn2)c1)c1cn2cc(C(F)(F)F)sc2n1 [Example I-1-275]
  nematicidal activity on the basis of the percentage of gall formation (100% = no galls): 90%

## Cc1ccc(Cn2cccn2)cc1S(=O)(=O)NC(=O)c1cn2cc(C(F)(F)C(F)(F)F)sc2n1 [Example I-1-295]
  nematicidal activity on the basis of the percentage of gall formation (100% = no galls): 90%

## CSc1cn2cc(C(=O)NS(=O)(=O)c3cc(C(F)(F)F)ccc3Cl)nc2s1 [Example I-1-296]
  nematicidal activity on the basis of the percentage of gall formation (100% = no galls): 100%

## COc1ccc(Cl)c(S(=O)(=O)NC(=O)c2nc3sc(C(F)(F)F)cn3c2Cl)c1 [Example I-3-4]
  nematicidal activity on the basis of the percentage of gall formation (100% = no galls): 100%

## O=C(NS(=O)(=O)c1c(Cl)cccc1Cl)c1cn2cc(Cl)sc2n1 [Example I-1-43]
  nematicidal activity on the basis of the percentage of gall formation (100% = no galls): 100%
